# How the values were obtained:
# [1] = tested on: HCT-116 cells; test: Cell cycle distribution (BrdU/PI flow cytometry); type: cell-based, human; settings: FIG. 5; increasing concentrations, 24 hours
# Experimental: For analysis of cell cycle distribution, serum-starved cells were cultured in medium containing 0.05% BSA and the desiderated concentrations of compound 14 for 24 hours. Cells were pulsed with 10 μM BrdU for 60 minutes, then collected, washed twice with PBS 1×, fixed in 70% cold ethanol, and stored at −20° C. for at least 3 hours. Afterwards, cells were washed twice with PBS 1×, denatured in 2M HCl and stained with anti-BrdU monoclonal antibody (Immunotech, Marseille, France) followed by FITC-conjugated secondary anti-mouse IgG (Molecular Probes/Invitrogen, Milan, Italy). After staining with 100 μg/ml PI, cells were analyzed by flow cytometry. […] HCT-116 cells were treated with or without compound 14 for 24 hours. Values in FIG. 5 are the percentages of cells in the different phases of cell cycle and indicate mean±SD of 4 experiments (untreated vs compound 14-treated cells * P<0.04, ** P<0.001). Right insets show representative dot-plots of the cell cycle distribution.
# [2] = tested on: colitis-associated colon cancer; test: AOM/DSS colitis-associated colon cancer; type: in vivo, Balb/c mice; settings: i.p. 16 mg/kg/mouse every second day for 49 days
# Experimental: Balb/c mice were given a first i.p. injection of AOM (10 mg/kg) on day O, Seven days after the AOM injection, the mice were given 2% DSS in the drinking water for 7 days. One week after the discontinuation of DSS administration, the mice were given a second i.p. injection of AOM (5 mg/kg). Then, 7 days after the second AOM injection, the mice were again given 2% DSS in the drinking water for 7 days. Two weeks later, the mice were randomly divided into two groups receiving i.p. injection of PBS or 16 mg/kg/mouse compound 14 every second day, for 49 days until sacrifice. (To rule out the possibility that compound 14 could interfere with the ongoing mucosal inflammation, treatment was started 2 weeks after the last DSS administration.) Mice were endoscopically screened, and neoplastic lesions were scored as previously described All mice were sacrificed at the end of the study, and colonic samples were used for histological analysis and isolating lamina propria mononuclear cells (LPMC). An aliquot of LPMC was assessed for the expression of CD4, CD8, and CD25 by flow-cytometry using the following antibodies (CD4: cat. 552051, BD Pharmigen, Milan, Italy; CD8: cat. 22150084S and CD25: cat. 22150253, Immunotools, Friesoythe, Germany), while the remaining LPMC were used for extracting RNA and assessing the expression of COX-2, TNFα, and IL-1β by real-time PCR. To this end, the following primers were used: COX-2: FWD: 5′-[…]-3′; REV: 5′-[…]-3′, TNFα: FWD: 5′-[…]-3′; REV: 5′-[…]-3, IL-1β: FWD: 5′-[…]-3′; REV: 5′-[…]-3.
# Colonic sections were stained with hematoxylin and eosin (H&E). The degree of inflammation and the presence of neoplastic lesions were evaluated and graded by the same pathologist in a blinded fashion. Immunohistochemistry for PCNA was performed using a PCNA staining kit (ZYMED Laboratories, Carlsbad, Calif., U.S.A.) according to the manufacturer's instructions. […] A polypoidor flat lesion is seen in control and compound 14-treated mice respectively.
# [3] = tested on: colonic IEL (intra-epithelial lymphocytes); test: Proliferation of normal colonic intra-epithelial lymphocytes (anti-CD3/CD28); type: cell-based; settings: FIG. 4A; anti-CD3/CD28, graded doses, 48 hours
# [4] = tested on: HCT-116 cells; test: CFSE cell proliferation assay, HCT-116 cells; type: cell-based, human
# Experimental: All reagents used in Examples 1-3 were from Sigma-Aldrich (Milan, Italy) unless specified. Compounds were dissolved as a 25 mM stock solution in culture medium, and the pH of the solution was adjusted to 7.4, if necessary, with NaOH. The human CRC cell lines, HCT-116 and HT-29 (expressing either wild-type or mutated p53 respectively), were maintained in McCoy's 5A supplemented with 10% fetal bovine serum (FBS), 1% penicillin/streptomycin, and 50 μg/ml gentamycin. The murine CRC cell line, CT26, was maintained in RPMI 1640 medium supplemented with 10% FBS and 1% penicillin/streptomycin.
# For cell growth assays, serum-starved HCT-116, HT-29, and CT26 cells were plated in appropriate complete medium at 2×10^5 cells/ml/well in 6-well culture dishes and allowed to adhere overnight. Cells were then labeled with carboxyfluorescein diacetate succinimidyl ester (CFSE) (Invitrogen, Milan Italy) at 37° C. according to the manufacturer's instruction. After 30 minutes, the medium was removed and fresh media containing 0.05% bovine serum albumin (BSA), and increasing doses of 5-ASA or disclosed compounds were added. After 24 hours, cells were collected, washed twice with PBS 1×, and then incubated with 5 μg/ml of PI for 15 minutes, at 4° C. in the dark. CFSE and/or PI-positive cells were determined by flow cytometry (Becton Dickinson, FACSCalibur, Milan, Italy). To determine whether the negative effect of compound 14 (2-methoxy-5-amino-N-hydroxybenzamide) on proliferation was reversible, cells were cultured in the presence or absence of compound 14 (1.5 and 3 mM) for 24 hours (1st culture). Afterwards, cells were either left untreated or extensively washed and cultured with medium in the absence of compound 14 for additional 24 hours (2nd culture). The percentage of proliferating cells was then evaluated by flow cytometry.
smiles,measurement,setting,value
"COc1ccc(N)cc1C(=O)NO [compound 14, 2-methoxy-5-amino-N-hydroxybenzamide]",cells in G0/G1 phase,[1],progressive accumulation
same,cells with S and G2/M phase DNA content,[1],decrease
same,multiplicity of neoplastic lesions (polypoid and flat),[2]; FIG. 8C,significantly reduced both types of lesions
same,PCNA staining in normal colonic mucosa,[2],no significant change
same,PCNA staining of neoplastic lesions,[2],confirmed the anti-proliferative effect
same,proliferation of normal colonic intra-epithelial lymphocytes,[3],did not affect
same,anti-proliferative effect (percentage of growth inhibition),"[4]; FIG. 1, CFSE-labeled HCT 116 cells, increasing doses",pronounced anti-proliferative effect
same,potency relative to 5-ASA in inhibiting CRC cell proliferation,"[4]; FIG. 1, CFSE-labeled HCT 116 cells, increasing doses, 24 hours",about ten times more potent than 5-ASA
same,proliferation of HCT-116 cells,"[4]; FIG. 2, graded doses",dose-dependently inhibited
same,time dependence of anti-proliferative effect,"[4]; FIG. 3A, increasing doses for 24, 48, and 72 hours",time-dependent
same,reversibility of anti-proliferative effect,"[4]; FIG. 3B, 1.5-3 mM for 24 hours, then washed and cultured 24 hours without compound",fully reversible
